Measured values published in ChEMBL document CHEMBL1201862, “PubChem BioAssay data set” (2004).
Activity calls are given as the source filed them.

How the values were obtained:
[1] = cells
[2] = molecular target: Major prion protein (Homo sapiens, UniProt P04156); type: functional, cell-based
[3] = cells; type: functional, cell-based
[4] = molecular target: T1, Nuclear receptor subfamily 0 group B member 1 (Homo sapiens, UniProt P51843); type: functional, cell-based;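 note: HEK293T cells transfected with SF-1 and DAX-1 plus StAR promoter luciferase reporter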
T1 sequence (P51843 whole entry): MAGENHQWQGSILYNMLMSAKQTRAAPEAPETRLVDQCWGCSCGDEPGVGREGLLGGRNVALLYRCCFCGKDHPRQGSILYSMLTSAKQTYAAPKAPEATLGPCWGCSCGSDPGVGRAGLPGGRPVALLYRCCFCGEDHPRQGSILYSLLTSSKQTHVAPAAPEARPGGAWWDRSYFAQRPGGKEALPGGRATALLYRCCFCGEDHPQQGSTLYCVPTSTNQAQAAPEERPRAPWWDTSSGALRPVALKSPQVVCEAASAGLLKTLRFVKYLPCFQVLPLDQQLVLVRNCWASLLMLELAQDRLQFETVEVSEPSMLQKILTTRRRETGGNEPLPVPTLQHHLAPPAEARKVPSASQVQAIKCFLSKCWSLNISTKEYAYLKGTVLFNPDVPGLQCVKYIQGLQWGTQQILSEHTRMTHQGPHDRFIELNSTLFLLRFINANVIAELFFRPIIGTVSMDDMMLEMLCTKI

[5] = cells; remark: listed apart in the source
[6] = molecular target: T2, Oxysterols receptor LXR-beta (Homo sapiens, UniProt P55055); type: functional, cell-based;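 note: Cell-based luminescence dose-response assay of agonist activity at LXR, run as a confirmatory counterscreen to a daf-12 agonist screen; HEK293 cells with Gal4-LXR fusion and GAL4-driven luciferase reporter; agonist potency from rising luciferase signal of a Gal4-LXR reporter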
T2 sequence (P55055 whole entry): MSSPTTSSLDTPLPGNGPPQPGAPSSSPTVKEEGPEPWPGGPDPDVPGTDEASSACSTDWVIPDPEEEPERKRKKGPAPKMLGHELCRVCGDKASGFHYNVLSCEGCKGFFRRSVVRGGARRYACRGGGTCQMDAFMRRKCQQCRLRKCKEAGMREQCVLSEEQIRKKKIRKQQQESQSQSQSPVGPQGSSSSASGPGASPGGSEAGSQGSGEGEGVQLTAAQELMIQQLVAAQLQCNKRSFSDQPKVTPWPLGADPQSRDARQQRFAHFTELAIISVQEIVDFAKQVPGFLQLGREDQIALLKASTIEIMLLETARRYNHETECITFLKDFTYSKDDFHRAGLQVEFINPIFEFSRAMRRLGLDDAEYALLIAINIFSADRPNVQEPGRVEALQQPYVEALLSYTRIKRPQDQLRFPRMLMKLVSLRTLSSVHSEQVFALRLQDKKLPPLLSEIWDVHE

[7] = molecular target: Peroxisome proliferator-activated receptor gamma/Nuclear receptor coactivator 1 (Homo sapiens, UniProt P37231); assay: (§1) TR-FRET dose response biochemical High Throughput Screening assay for agonists of the steroid receptor coactivator 1 (SRC-1) recruitment by the peroxisome proliferator-activated receptor gamma (PPAR gamma): non-selective agonists. [Related pubchem assays (depositor defined):AID1300, AID1808, AID504735, AID631]; type: protein assay
[8] = molecular target: Mitogen-activated protein kinase 10 (Homo sapiens, UniProt P53779); assay: Dose response biochemical screening assay for inhibitors of c-Jun N-Terminal Kinase 3 (JNK3). [Related pubchem assays: 746 ]
[9] = molecular target: Peroxisome proliferator-activated receptor gamma/Nuclear receptor coactivator 3 (Homo sapiens, UniProt P37231); assay: as §1, with “3 (SRC-3)” for “1 (SRC-1)”, “assays: 1301 (Confirmation screen.), 1048 (Primary screen.)]” for “assays (depositor defined):AID1300, AID1808, AID504735, AID631]”; type: functional
[10] = molecular target: Peroxisome proliferator-activated receptor gamma/Nuclear receptor coactivator 2 (Homo sapiens, UniProt P37231); assay: TR-FRET dose response biochemical High Throughput Screening assay for agonists of the steroid receptor coactivator 2 (SRC-2) recruitment by the peroxisome proliferator-activated receptor gamma (PPAR gamma): non-selective agonists. [Related pubchem assays: 1297, 1032 ]; type: functional
[11] = molecular target: T3, Estrogen receptor (Homo sapiens, UniProt P03372); assay: potentiators of ERα–SRC-1 coactivator binding, dose response, biochemical, TR-FRET, ERα LBD (AID 737)
T3 sequence (P03372 whole entry): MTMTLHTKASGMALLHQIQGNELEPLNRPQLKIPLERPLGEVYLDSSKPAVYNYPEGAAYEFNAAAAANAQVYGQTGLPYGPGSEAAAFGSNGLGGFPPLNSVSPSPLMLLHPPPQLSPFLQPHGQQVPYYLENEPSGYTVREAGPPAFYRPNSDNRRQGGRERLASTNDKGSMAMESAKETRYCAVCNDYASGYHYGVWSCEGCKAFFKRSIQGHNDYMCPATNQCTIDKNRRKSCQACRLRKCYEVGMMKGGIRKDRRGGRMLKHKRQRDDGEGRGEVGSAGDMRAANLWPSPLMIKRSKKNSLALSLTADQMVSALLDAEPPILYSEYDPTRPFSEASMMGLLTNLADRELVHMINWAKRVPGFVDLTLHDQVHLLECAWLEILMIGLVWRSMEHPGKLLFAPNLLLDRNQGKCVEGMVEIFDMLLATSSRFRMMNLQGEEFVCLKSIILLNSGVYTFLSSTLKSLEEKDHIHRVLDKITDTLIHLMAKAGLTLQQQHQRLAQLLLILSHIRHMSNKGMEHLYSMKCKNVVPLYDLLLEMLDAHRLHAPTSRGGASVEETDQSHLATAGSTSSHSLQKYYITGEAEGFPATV

[12] = molecular target: T4, RNA-binding protein pos-1 (Caenorhabditis elegans, UniProt G5EF15); assay: inhibitors of POS-1/mex-3 RNA binding, dose response, biochemical, fluorescence polarization (AID 1964);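 note: purified POS-1 fused to maltose binding protein made in E. coli; potency of compounds blocking POS-1 binding to fluorescent RNA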
T4 sequence (G5EF15 whole entry): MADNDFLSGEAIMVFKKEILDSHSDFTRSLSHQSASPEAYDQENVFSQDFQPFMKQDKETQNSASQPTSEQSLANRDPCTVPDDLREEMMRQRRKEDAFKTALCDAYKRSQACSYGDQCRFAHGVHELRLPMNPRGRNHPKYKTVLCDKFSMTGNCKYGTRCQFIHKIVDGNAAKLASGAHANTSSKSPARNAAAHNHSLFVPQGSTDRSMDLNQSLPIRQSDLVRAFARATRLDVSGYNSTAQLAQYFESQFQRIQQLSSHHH

[13] = molecular target: T5, Zinc finger protein mex-5 (Caenorhabditis elegans, UniProt Q9XUB2); assay: MEX-5/TCR-2 RNA interaction inhibitors, dose response, biochemical, C. elegans, fluorescence polarization (AID 1960)
T5 sequence (Q9XUB2 whole entry): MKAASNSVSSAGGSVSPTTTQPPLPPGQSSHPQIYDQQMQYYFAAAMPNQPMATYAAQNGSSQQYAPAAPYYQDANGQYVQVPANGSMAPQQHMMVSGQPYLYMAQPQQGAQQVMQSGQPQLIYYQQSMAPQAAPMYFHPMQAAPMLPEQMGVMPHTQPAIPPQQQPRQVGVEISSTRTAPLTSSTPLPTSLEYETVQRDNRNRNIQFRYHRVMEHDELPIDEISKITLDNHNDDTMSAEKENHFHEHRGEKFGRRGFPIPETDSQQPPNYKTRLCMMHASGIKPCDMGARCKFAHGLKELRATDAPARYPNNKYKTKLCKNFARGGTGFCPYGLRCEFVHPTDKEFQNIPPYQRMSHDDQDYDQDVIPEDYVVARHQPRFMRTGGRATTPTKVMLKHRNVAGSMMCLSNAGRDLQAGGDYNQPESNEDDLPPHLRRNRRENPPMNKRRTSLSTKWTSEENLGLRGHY

[14] = molecular target: fMet-Leu-Phe receptor (Homo sapiens, UniProt P21462); assay: FPR ligands, dose response (AID 519); type: functional
[15] = HEp-2 cell cytotoxicity, dose response, cytotoxicity control for RSV inhibitor project, HTS (AID 2410); type: functional; settings: human respiratory syncytial virus
[16] = molecular target: Protein Tat (Human immunodeficiency virus type 1 group M subtype B (isolate HXB2)(HIV-1), UniProt P04608); type: functional;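 note: tat binding to TAR RNA read out by fluorescence polarization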
[17] = tested on: INS1; assay: beta cell apoptosis inhibitors, cytokine rescue, dose response, luminescence, retest (AID 449756); type: functional, cell-based; settings: Rattus norvegicus;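 note: cell death triggered by IL-1 beta plus TNF-alpha plus IFN-gamma mixture; protective hits raise ATP signal compared with cytokine alone wells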
[18] = tested on: BJ; assay: cytotoxicity toward BJ-TERT-LT-ST fibroblasts, dose response, cell-based, RAS-independent, luminescence (AID 1935); type: functional; settings: Homo sapiens;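 note: BJ fibroblasts immortalized with TERT plus LT and ST oncogenes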
[19] = inhibitors of firefly luciferase expression or activity, dose response, H4 neuroglioma cells, luminescence (AID 1990); type: functional, cell-based
[20] = tested on: BJ; assay: cytotoxicity toward Ras-transformed BJeLR fibroblasts, dose response, cell-based, alamar blue fluorescence, cherrypicked samples (AID 2631); type: functional; settings: Homo sapiens;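 note: confirmatory dose-response assay in RAS-dependent BJ fibroblasts engineered with TERT, LT and ST, with cytotoxicity read by fluorescence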
[21] = cytotoxicity toward DRD oncogenic fibroblasts, dose response, cell-based, non-viral oncogenic, luminescence (AID 1934); type: functional; settings: Homo sapiens
[22] = Luminescence Cell-Based Dose Response HTS to Identify Inhibitors of 5'UTR Stem-Loop Driven Prion Protein mRNA Translation in H4 Neuroglioblastoma Cells. [Related pubchem assays: 1827 (Project Summary), 1813 (Primary HTS)]; type: functional
[23] = HEK293T cell cytotoxicity, dose response, cytotoxicity control for HIV Vif inhibitor project, cherry-picks (AID 652208); type: functional, cell-based
[24] = tested on: BJ; assay: cytotoxicity toward BJ-TERT fibroblasts, dose response, cell-based, RAS-independent, luminescence (AID 1933); type: functional; settings: Homo sapiens
[25] = tested on: BJ; assay: cells; type: functional, cell-based; settings: Homo sapiens
[26] = molecular target: NAD-dependent protein deacylase sirtuin-5, mitochondrial (Homo sapiens, UniProt Q9NXA8); assay: SIRT5 desuccinylase inhibitors, dose response, biochemical, fluorescence imaging, cherry-pick, set 5 (AID 720591);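 note: desuccinylation of succinyl peptide AMC substrate read as fluorescence after trypsin release; potency of inhibitors that lower fluorescence and may act on trypsin instead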
[27] = tested on: Escherichia coli; assay: microbe, parasite or virus in culture
[28] = tested on: Escherichia coli; assay: microbe, parasite or virus in culture; remark: listed apart in the source
[29] = cells; settings: A549
[30] = HepG2 cell cytotoxicity, dose response, cytotoxicity control, ATP luminescence, cherry-pick, set 6 (AID 1053125); type: functional, cell-based
[31] = cells; settings: HEK293
[32] = A549 cell cytotoxicity, dose response, cytotoxicity control, plate reader, cherry-pick, antagonist series (AID 743412); type: functional, cell-based
[33] = HepG2 cell cytotoxicity, dose response, cytotoxicity control, plate reader, cherry-pick, antagonist series (AID 743416); type: functional, cell-based
[34] = molecular target: Paired box protein Pax-8 (Homo sapiens, UniProt Q06710); assay: inhibitors of PAX8-driven TPO luciferase reporter, dose response, RMG-I cells, cherry-pick (AID 687027); type: functional, cell-based;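 note: luciferase reporter driven by Pax8 target thyroperoxidase promoter measured by SteadyGlo luminescence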
[35] = IGROV1 ovarian cancer cell cytotoxicity, dose response, PAX8 inhibitor project, plate reader, dry powder samples (AID 743043); type: functional, cell-based; settings: IGROV-1
[36] = NIH:OVCAR-3 ovarian cancer cell cytotoxicity, dose response, PAX8 inhibitor project, plate reader, dry powder samples (AID 743044); type: functional, cell-based
[37] = T. cruzi growth inhibition in host cells, dose response, cell-based, plate reader, dry powder, set 2 (AID 652275); type: functional

O=C(c1ccc(F)cc1)c1cn(Cc2ccc(F)cc2)c2cc3c(cc2c1=O)OCCO3
IC50 [1]: > 138 µM (inactive) | IC50 [2]: 3.03 µM (active)

Cc1ccc(C(=O)Nc2ncccc2O)o1
IC50 [3]: > 67.6 µM (inactive) | IC50 [4]: 24.7 µM (inactive)

CN1CCN(c2ccc(-c3cccc(NC(=O)COc4ccccc4)c3)nn2)CC1
IC50 [3]: > 67.5 µM (inactive) | IC50 [4]: > 67.5 µM (inactive)

c1ccc(-c2csc(Nc3ccc4c(c3)OCCO4)n2)cc1
EC50 [5]: > 67.5 µM (inactive) | EC50 [6]: > 67.5 µM (inactive)

COc1ccc2c(Cl)c(C(N)=O)sc2c1
EC50 [7]: > 79.4 µM (inactive) | IC50 [1]: > 138 µM (inactive) | IC50 [2]: 2.46 µM (active) | IC50 [8]: 68.3 µM (not active) | EC50 [9]: > 79.4 µM (not active) | EC50 [10]: 16.7 µM (not active)

Cc1ccc2ccc(C3C(=O)c4ccccc4C3=O)nc2c1
EC50 [11]: 13.2 µM (not active) | EC50 [12]: > 300 µM (not active) | EC50 [5]: > 67.6 µM (inactive) | EC50 [6]: > 67.6 µM (inactive) | EC50 [13]: 48.4 µM (active)

Cc1nc2c(-c3ccc(F)cc3)c(C)nn2c(C)c1CCC(=O)NC(C)CCc1ccco1 (stereo unspecified)
Ki [14]: > 66.7 µM (inactive) | CC50 [15]: > 50 µM (active)

COc1ccc(CCNC(=O)CN2CCCc3ccccc32)cc1OC
IC50 [16]: > 100 µM (active)

CC1CN(S(=O)(=O)c2ccc(C(=O)NCCCn3ccnc3)cc2)CC(C)O1 (stereo unspecified)
AC50 [17]: 1.17 µM (active) | EC50 [18]: 3.76 µM (inconclusive) | EC50 [19]: 11.1 µM (active) | EC50 [20]: 0.39 µM (active) | EC50 [21]: 13.2 µM (active) | EC50 [22]: 7.94 µM (active) | AC50 [23]: > 52 µM (inactive) | EC50 [24]: > 150 µM (not active) | EC50 [25]: 5.83 µM (inconclusive)

COc1ccc(C2C(C(=O)c3ccco3)=C(O)C(=O)N2CCc2ccccc2)cc1OC (stereo unspecified)
Ki [14]: 36.9 µM (inactive)

C=C1c2cccc(O)c2C(=O)C2C(=O)[C@]3(O)C(=O)C(C(N)=O)C(=O)[C@@H](N(C)C)[C@@H]3[C@@H](O)[C@H]12 (stereo partly specified)
AC50 [26]: 12.7 µM (active) | AC50 [27]: 31.7 µM (active) | AC50 [28]: 2.19 µM (active)

CC(=O)Nc1cccc(-c2ccnc3c2CC(C(=O)NCc2cccc(Cl)c2)O3)c1 (stereo unspecified)
AC50 [29]: > 52 µM (inactive) | AC50 [30]: > 52 µM (inactive) | AC50 [31]: 40.1 µM (active)

Cn1c(=O)c2cc(NC(=O)NCc3ccccc3)ccc2n1C/C=C/c1ccccc1
AC50 [32]: 18.2 µM (active) | AC50 [33]: 36.9 µM (active)

C[C@H](CO)N1C[C@H](C)[C@H](CN(C)Cc2ccc(C(F)(F)F)cc2)OCCCC[C@H](C)Oc2ccc(NC(=O)Nc3ccc4c(c3)OCO4)cc2C1=O
AC50 [34]: 5.42 µM (active) | AC50 [35]: 40.3 µM (active) | AC50 [36]: 28.6 µM (active)

COc1cccc(CN(C)C[C@H]2Oc3c(NC(=O)c4ccncc4)cccc3C(=O)N([C@@H](C)CO)C[C@@H]2C)c1
AC50 [37]: 0.0568 µM (active)

COC(=O)c1ccc2nc(-c3ccc(OC)c(OC)c3)c(Cc3ccccc3C(F)(F)F)n2c1
AC50 [26]: > 30 µM (inactive)

CCN(C)C[C@H]1Oc2c(NC(=O)c3ccncc3)cccc2C(=O)N(C(C)C)[C@@H]1C
AC50 [37]: 0.0842 µM (active)
